Test results as given in US9856279B2 (AGIOS PHARMACEUTICALS, INC, priority 2011, dated 2018).

Biological target: IDH1 R132H (Homo sapiens, UniProt O75874, R132H)
Assay: Assay for IDH1 R132H inhibitors (NADPH/aKG, resazurin detection)
Format: biochemical
Details: Table 3; enzyme assay, 50 minutes at room temperature; read-out: IC50 (IDH1 R132H Inhibition)
Outline: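 Read-out is resorufin fluorescence (Ex544/Em590) 5 min after adding a 30 μM resazurin detection mix. Before that, mutant enzyme (0.2 μg/ml in its mix) ran 50 min at room temperature with compound, 8 uM NADPH and 2 mM aKG (mix levels) in Tris pH 7.5 with NaCl, MgCl2, BSA.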

Chain of IDH1 R132H (O75874 whole entry R132H): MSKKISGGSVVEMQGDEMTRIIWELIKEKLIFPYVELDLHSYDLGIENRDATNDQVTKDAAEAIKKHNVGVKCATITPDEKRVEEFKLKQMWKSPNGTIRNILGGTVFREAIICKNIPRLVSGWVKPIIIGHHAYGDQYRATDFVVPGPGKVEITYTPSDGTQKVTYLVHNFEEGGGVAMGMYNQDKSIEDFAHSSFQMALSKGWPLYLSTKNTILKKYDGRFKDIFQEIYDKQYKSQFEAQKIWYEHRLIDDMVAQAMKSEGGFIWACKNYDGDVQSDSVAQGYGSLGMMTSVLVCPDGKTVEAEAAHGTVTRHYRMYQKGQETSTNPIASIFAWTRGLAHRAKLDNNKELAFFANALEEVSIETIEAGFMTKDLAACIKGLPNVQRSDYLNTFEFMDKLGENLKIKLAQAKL

Row | Compound | IC50 [nM]
1 | COCCC(=O)N1CCN(c2nc(C(C)C)c(-c3cccc(C)c3)cc2C#N)C[C@H]1C [Compound 193, (R)-6-isopropyl-2-(4-(3-methoxypropanoyl)-3-methylpiperazin-1-yl)-5-m-tolylnicotinonitrile] | 1000 to 5000
2 | COCCC(=O)N1CCN(c2nc(C3CC3)c(-c3cccc(F)c3)c(C)c2C#N)C[C@H]1C [Compound 257, (R)-6-cyclopropyl-5-(3-fluorophenyl)-2-(4-(3-methoxypropanoyl)-3-methylpiperazin-1-yl)-4-methylnicotinonitrile] | ≤ 1000
3 | CC(C)c1nc(N2CCN(C(=O)c3ccoc3)[C@H](C(C)C)C2)c(C#N)cc1-c1ccccc1 [Compound 170, (R)-2-(4-(furan-3-carbonyl)-3-isopropylpiperazin-1-yl)-6-isopropyl-5-phenylnicotinonitrile] | 1000 to 5000
4 | COCCC(=O)N1CCN(c2nc(C(C)C)c(-c3cccc4ccccc34)cc2C#N)C[C@H]1C [Compound 217, (R)-6-isopropyl-2-(4-(3-methoxypropanoyl)-3-methylpiperazin-1-yl)-5-(naphthalen-1-yl)nicotinonitrile] | 1000 to 5000
5 | COCCC(=O)N1CCN(c2nc(C3CC3)c(-c3ccc(C)c(F)c3)cc2C#N)C[C@H]1C [Compound 235, (R)-6-cyclopropyl-5-(3-fluoro-4-methylphenyl)-2-(4-(3-methoxypropanoyl)-3-methylpiperazin-1-yl)nicotinonitrile] | ≤ 1000
6 | Cc1occc1C(=O)N1CCN(c2nc(C(C)C)c(-c3ccoc3)cc2C#N)C[C@H]1C [Compound 203, (R)-5-(furan-3-yl)-6-isopropyl-2-(3-methyl-4-(2-methylfuran-3-carbonyl)piperazin-1-yl)nicotinonitrile] | 1000 to 5000
7 | COCCC(=O)N1CCN(c2nc(C(C)C)c(-c3ccc(F)cc3)cc2C(=O)OC)C[C@H]1C [Compound 244, (R)-methyl 5-(4-fluorophenyl)-6-isopropyl-2-(4-(3-methoxypropanoyl)-3-methylpiperazin-1-yl)nicotinate] | 1000 to 5000
8 | COCCC(=O)N1CCN(c2nc(C3CC3)c(-c3ccc(F)cc3F)cc2C#N)C[C@H]1C [Compound 250, (R)-6-cyclopropyl-5-(2,4-difluorophenyl)-2-(4-(3-methoxypropanoyl)-3-methylpiperazin-1-yl)nicotinonitrile] | ≤ 1000
9 | N#Cc1cc(-c2ccccc2)c(-c2ccccc2)nc1N1CCN(C(=O)c2ccoc2)CC1 [Compound 122, 2-(4-(furan-3-carbonyl)piperazin-1-yl)-5,6-diphenylnicotinonitrile] | 5000 to 15000
10 | CC[C@@H]1CN(c2nc(C(C)C)c(-c3ccccc3)cc2C#N)CCN1C(=O)c1ccoc1C [Compound 173, (R)-2-(3-ethyl-4-(2-methylfuran-3-carbonyl)piperazin-1-yl)-6-isopropyl-5-phenylnicotinonitrile] | 1000 to 5000
11 | CC(C)c1cc(-c2ccccc2)nc(N2CCN(C(=O)c3ccco3)CC2)c1C#N [Compound 103, 2-(4-(furan-2-carbonyl)piperazin-1-yl)-4-isopropyl-6-phenylnicotinonitrile] | 5000 to 15000
12 | Cc1cccc(-c2cc(C#N)c(N3CCN(C(=O)c4ccoc4)[C@H](C)C3)nc2C(C)C)c1 [Compound 191] | ≤ 1000
13 | Cc1cccc(-c2cc(C#N)c(N3CCN(C(=O)c4ccco4)[C@H](C)C3)nc2C(C)C)c1 [Compound 190] | 5000 to 15000
14 | COCCC(=O)N1CCN(c2nc(C3CC3)c(-c3ccc(OC(F)(F)F)cc3)cc2C#N)C[C@H]1C [Compound 227, (R)-6-cyclopropyl-2-(4-(3-methoxypropanoyl)-3-methylpiperazin-1-yl)-5-(4-(trifluoromethoxy)phenyl)nicotinonitrile] | ≤ 1000
15 | CC(C)c1nc(N2CCN(C(=O)Cc3ccccc3)[C@H](C)C2)c(C#N)cc1-c1ccccc1 [Compound 143, (R)-6-isopropyl-2-(3-methyl-4-(2-phenylacetyl)piperazin-1-yl)-5-phenylnicotinonitrile] | 1000 to 5000
16 | COCCC(=O)N1CCN(c2nc(C3CC3)c(-c3ccncc3)c(C)c2C#N)C[C@H]1C [Compound 260, (R)-2-cyclopropyl-6-(4-(3-methoxypropanoyl)-3-methylpiperazin-1-yl)-4-methyl-3,4′-bipyridine-5-carbonitrile] | ≤ 1000
17 | COCCC(=O)N1CCN(c2nc(C(C)C)c(-c3cccc(OC)c3)cc2C#N)C[C@H]1C [Compound 212, (R)-6-isopropyl-5-(3-methoxyphenyl)-2-(4-(3-methoxypropanoyl)-3-methylpiperazin-1-yl)nicotinonitrile] | ≤ 1000
18 | COCCC(=O)N1CCN(c2nc(C(C)C)c(-c3cncnc3)cc2C#N)C[C@H]1C [Compound 210, (R)-6-isopropyl-2-(4-(3-methoxypropanoyl)-3-methylpiperazin-1-yl)-5-0γ(pyrimidin-5-yl)nicotinonitrile] | 5000 to 15000
19 | CC(C)c1cc(-c2cccc(F)c2)c(C#N)c(N2CCN(C(=O)c3ccco3)CC2)n1 [Compound 114, 4-(3-fluorophenyl)-2-(4-(furan-2-carbonyl)piperazin-1-yl)-6-isopropylnicotinonitrile] | 1000 to 5000
20 | CC(C)c1nc(N2CCN(C(=O)c3ccoc3)[C@H](C)C2)c(C#N)cc1-c1ccoc1 [Compound 204, (R)-2-(4-(furan-3-carbonyl)-3-methylpiperazin-1-yl)-5-(furan-3-yl)-6-isopropylnicotinonitrile] | 1000 to 5000
21 | Cc1occc1C(=O)N1CCN(c2nc(C(C)C)c(-c3ccc(C(F)(F)F)cc3)cc2C#N)C[C@H]1C [Compound 201, (R)-6-isopropyl-2-(3-methyl-4-(2-methylfuran-3-carbonyl)piperazin-1-yl)-5-(4-(trifluoromethyl)phenyl)-nicotinonitrile] | 1000 to 5000
22 | COCCC(=O)N1CCN(c2nc(C(C)C)c(-c3ccc(Cl)cc3)cc2C#N)C[C@H]1C [Compound 215, (R)-5-(4-chlorophenyl)-6-isopropyl-2-(4-(3-methoxypropanoyl)-3-methylpiperazin-1-yl)nicotinonitrile] | 1000 to 5000
23 | CC(C)c1nc(N2CCN(C(=O)c3ccoc3)[C@@H](C)C2)c(C#N)cc1-c1ccccc1 [Compound 144, (S)-2-(4-(furan-3-carbonyl)-3-methylpiperazin-1-yl)-6-isopropyl-5-phenylnicotinonitrile] | 1000 to 5000

Same assay, conditions: enzyme assay of Example 12; read-out: IDH1R132H IC50

Row | Compound | IC50 [nM]
24 | C=Cc1cc(-c2c(C3CC3)nc(N3CCN(C(=O)C=C4CCC4)[C@H](C4CC4)C3)c(C#N)c2C)ccn1 [Compound 820, (R)-6-(4-(2-cyclobutylideneacetyl)-3-cyclopropylpiperazin-1-yl)-2-cyclopropyl-4-methyl-2′-vinyl-3,4′-bipyridine-5-carbonitrile] | < 500
25 | Cc1cc(-c2cc(C#N)c(N3CCN(C(=O)C4CC4)[C@H](C4CC4)C3)nc2C2CC2)ccn1 [Compound 523, (R)-6-(4-(cyclopropanecarbonyl)-3-cyclopropylpiperazin-1-yl)-2-cyclopropyl-2′-methyl-3,4′-bipyridine-5-carbonitrile] | 500 to 1000
26 | N#Cc1cc(-c2cnn(CCO)c2)c(C2CC2)nc1N1CCN(C(=O)C2CC2)[C@H](C2CC2)C1 [Compound 490, (R)-2-(4-(cyclopropanecarbonyl)-3-cyclopropylpiperazin-1-yl)-6-cyclopropyl-5-(1-(2-hydroxyethyl)-1H-pyrazol-4-yl)nicotinonitrile] | 500 to 1000
27 | N#Cc1cc(-c2cc(CCN)nc(N)n2)c(C2CC2)nc1N1CCN(C(=O)C2CC2)[C@H](C2CC2)C1 [Compound 701, (R)-5-(2-amino-6-(2-aminoethyl)pyrimidin-4-yl)-2-(4-(cyclopropanecarbonyl)-3-cyclopropylpiperazin-1-yl)-6-cyclopropylnicotinonitrile] | < 500
28 | CNc1cccc(-c2cc(C#N)c(N3CCN(C(=O)CCOC)[C@H](C)C3)nc2C2CC2)c1 [Compound 414, (R)-6-cyclopropyl-2-(4-(3-methoxypropanoyl)-3-methylpiperazin-1-yl)-5-(3-(methylamino)phenyl)nicotinonitrile] | 500 to 1000
29 | COCCC(=O)N1CCN(c2nc(C3CC3)c(-c3ccccc3CO)c(C)c2C#N)C[C@H]1C [Compound 372, (R)-6-cyclopropyl-5-(2-hydroxymethyl-phenyl)-2-[4-(3-methoxy-propionyl)-3-methyl-piperazin-1-yl]-4-methyl-nicotinonitrile] | < 500
30 | COC(=O)N1CCN(c2nc(C3CC3)c(-c3cccc4cnccc34)cc2C#N)C[C@H]1C1CC1 [Compound 489, (R)-methyl 4-(3-cyano-6-cyclopropyl-5-(isoquinolin-5-yl)pyridin-2-yl)-2-cyclopropylpiperazine-1 carboxylate] | 500 to 1000
31 | CS(=O)(=O)n1cc(-c2cc(C#N)c(N3CCN(C(=O)C4CC4)[C@H](C4CC4)C3)nc2C2CC2)cn1 [Compound 502, (R)-2-(4-(cyclopropanecarbonyl)-3-cyclopropylpiperazin-1-yl)-6-cyclopropyl-5-(1-(methylsulfonyl)-1H-pyrazol-4-yl)nicotinonitrile] | 500 to 1000
32 | N#Cc1cc(-c2ccc(C(F)(F)F)nc2)c(C2CC2)nc1N1CCN(C(=O)C2CC2)[C@H](C2CC2)C1 [Compound 567, (R)-6-(4-(cyclopropanecarbonyl)-3-cyclopropylpiperazin-1-yl)-2-cyclopropyl-6′-(trifluoromethyl)-[3,3′-bipyridine]-5-carbonitrile] | 500 to 1000
33 | C=Cc1ccnc(Nc2cc(C#N)c(N3CCN(C(=O)CN4CCCC4=O)[C@H](C4CC4)C3)nc2C2CC2)c1 [Compound 816, (R)-6-cyclopropyl-2-(3-cyclopropyl-4-(2-(2-oxopyrrolidin-1-yl)acetyl)piperazin-1-yl)-5-((4-vinylpyridin-2-yl)amino)nicotinonitrile] | 500 to 1000
34 | COCCC(=O)N1CCN(c2nc(C3CC3)c(-c3ccc4nnnn4c3)cc2C#N)C[C@H]1C [Compound 370, (R)-6-cyclopropyl-2-[4-(3-methoxy-propionyl)-3-methyl-piperazin-1-yl]-5-tetrazolo[1,5-a]pyridin-6-yl-nicotinonitrile] | 500 to 1000
